# Source: patent US20030017976A1, “Therapeutic properties of liposome-encapsulated immunomodulators” (priority 1998, published 2003)
# “And” between values parts separate entries of the source, which are not always exact repeats. Equal entries are not always repeated. Where two headings read alike, the source gives them in different places. Marks after values point to notes of the source that are not given here.
# Legend:
# C57BL/6 mice [1] = assay: Prevention of CPT-11 induced intestinal damage and morbidity by oral immunomodulator; type: in vivo, mouse; settings: for Death / Morbidity: 4 daily i.p., oral saline or free-form MTP-PE 100 ug/dose for one week before
# Procedure: Experimental Design and Methods. […] Tissue was harvested 7 days after the last injection (small intestine and colon distal to the cecum). Histology was prepared. Some mice were monitored for the presence of drug toxicity.
# Example 6 has shown that 100, 150, and 200 mg/kg at 4 consecutive i.p. administrations are highly toxic to C57BL/6 mice.
# CT-26P colon carcinoma = assay: Combination therapy of CT-26P colon carcinoma with CPT-11 and oral liposomal JBT3002; type: in vivo, mouse; settings: day 17; for Liver Weights, mean / Liver Weights, single mice: alone or + oral liposomal JBT3002 1 μg/dose
# Procedure: This course of therapy was repeated weekly for about three weeks prior to tissue harvest. Experimental Groups/Procedures: 40 Balb/c mice were divided into 8 groups of 5 mice each. On day 0, the spleens of the mice were injected with 15,000 cultured CT-26P cells. The groups were then treated as follows: The spleens of Balb/c mice were injected with 15,000 cultured CT-26P colon carcinoma cells on day 0. […] Treated mice received two weeks of chemotherapy and three weeks of the macrophage activator. Tissues were harvested on day 17. The spleens and livers were weighed, the extent of metastasis was graded (denoted below) and histology prepared.
# [2] = test system: L3.6pl human pancreatic tumors; assay: Therapy of L3.6pl human pancreatic tumors in nude mice; type: in vivo, mouse; settings: CPT-11 100 mg/kg i.p. once a week +/− oral JBT 3002 (tablet) 0.05 mcg/dose
# Procedure: Table 19 (A, B, C). Therapy of human pancreatic carcinoma liver metastasis. The pancreas of nude mice were injected with 1×10^6 viable human pancreatic cancer L3.6pl cells. […] This regimen was repeated on a weekly basis for 3 weeks. The mice were killed. Pancreatic tumors, liver metastases, and lymph node metastasis were quantified.
# IL-15 = assay: Ileum and liver lesion histology, BrdUrd and IL-15 expression after JBT 3002 and CPT-11; type: in vivo, mouse
# Procedure: BALB/c mice were injected with CT-26 colon cancer cells into the spleen. […] Four days after the last injection of CPT-11, some mice were killed and their ileum was harvested and prepared for histology, immunohistochemistry, and molecular biology analyses.
# [3] = Body weight change and deaths during therapy of CT-26 bearing BALB/c mice; type: in vivo, mouse
# C57BL/6 mice [4] = test system: C57BL/6 mice
# [5] = test system: CT-26 colon cancer liver metastasis; assay: Combination therapy of MTP-PE and CPT-11 for CT-26 colon cancer liver metastasis
# CT-26 colon carcinoma = assay: Therapy of experimental liver metastasis of CT-26 colon carcinoma with CPT-11 and oral JBT 3002
# [6] = Table 10, oral MLV-HBSS, CPT-11 100 mg/kg i.p. once a week, day 23
# [7] = Table 11, CPT-11 100 mg/kg i.p. once a week alone, day 24
# [8] = Table 12, oral MLV-HBSS, CPT-11 100 mg/kg 4 daily i.p. (intensive), day 14
# [9] = Table 13, oral MLV-HBSS, CPT-11 100 mg/kg i.p. once a week, day 23
# [10] = CPT-11 50 mg/kg, oral saline or MTP-PE
# [11] = Table 14, MLV-JBT 3002 1.0 μg/dose or FF-JBT 3002 0.05 μg/dose oral 3 days, CPT-11 100 mg/kg 4 daily i.p., day 21
# [12] = Table 15, oral JBT 3002 0.05 μg/dose 3 consecutive days and/or CPT-11 100 mg/kg 4 daily i.p., day 21
# [13] = Table 16, oral JBT3002 0.05 μg dose thrice weekly 3 weeks and/or CPT-11 100 mg/kg i.p. once a week, day 24
structure (smiles),measurement,setting,value
"CCc1c2c(nc3ccc(OC(=O)N4CCC(N5CCCCC5)CC4)cc13)-c1cc3c(c(=O)n1C2)COC(=O)[C@]3(O)CC [CPT-11, Irinotecan]",Death,C57BL/6 mice [1]; CPT-11 100 mg/kg,0/10
same,Morbidity,C57BL/6 mice [1]; CPT-11 100 mg/kg,8/10
same,damage to intestinal tissue,"C57BL/6 mice [1]; CPT-11 100 mg/kg, oral MTP-PE 100 μg/dose three consecutive days per week, C57BL/6 mice",induces loss of structural integrity of duodenal and large colon crypts
same,Death,C57BL/6 mice [1]; CPT-11 150 mg/kg,6/10
same,Morbidity,C57BL/6 mice [1]; CPT-11 150 mg/kg,10/10
same,Death,C57BL/6 mice [1]; CPT-11 200 mg/kg,9/10
same,Morbidity,C57BL/6 mice [1]; CPT-11 200 mg/kg,10/10
same,GI toxicity (histology of intestinal villi and lumen),"C57BL/6 mice [1]; oral PBS or MTP-PE 100 μg/dose 3×/week for 3 weeks, then 4 i.p. injections of CPT-11",severe damage to the intestinal villi and lumen
same,intestinal toxicity (histology),"C57BL/6 mice [1]; oral saline or JBT3002 0.1, 1.0 and 10 μg/dose in PC liposomes, then CPT-11 100 mg/kg i.p. 4 days",induced severe toxicity
same,"Spleen Weights, mean","CT-26P colon carcinoma; CPT-11 25 mg/kg once a week, alone or + oral JBT3002 1 μg/dose in PC liposomes 3x/week",1.284 ± 0.257 grams
same,"Spleen Weights, single mice","CT-26P colon carcinoma; CPT-11 25 mg/kg once a week, alone or + oral JBT3002 1 μg/dose in PC liposomes 3x/week, 25 mg/kg",1.486 grams and 0.888 grams and 1.056 grams and 1.588 grams and 1.403 grams
same,"Liver Weights, mean",CT-26P colon carcinoma; CPT-11 25 mg/kg once a week,1.670 ± 0.301 grams
same,"Liver Weights, single mice","CT-26P colon carcinoma; CPT-11 25 mg/kg once a week, 25 mg/kg",1.416 grams and 1.460 grams and 2.246 grams
same,"Spleen Weights, mean","CT-26P colon carcinoma; CPT-11 50 mg/kg once a week, alone or + oral JBT3002 1 μg/dose in PC liposomes 3x/week",0.746 ± 0.561 grams
same,"Liver Weights, single mice","CT-26P colon carcinoma; CPT-11 50 mg/kg once a week, 50 mg/kg",1.407 grams and 1.205 grams and 1.525 grams
same,"Spleen Weights, mean","CT-26P colon carcinoma; CPT-11 100 mg/kg once a week, alone or + oral JBT3002 1 μg/dose in PC liposomes 3x/week",0.216 ± 0.110 grams
same,"Liver Weights, mean",CT-26P colon carcinoma; CPT-11 100 mg/kg once a week,1.203 ± 0.065 grams
same,"Liver Weights, single mice","CT-26P colon carcinoma; CPT-11 100 mg/kg once a week, 100 mg/kg",1.105 grams and 1.252 grams and 1.172 grams and 1.293 grams and 1.196 grams
same,Incidence LN met,[2]; 31 days,7/10
same,Incidence WT/PC,[2]; 31 days,0/10
same,Incidence liver met,[2]; 31 days,0/10
same,"Tumor weight, Average",[2]; 31 days,152.10 mg
same,"Tumor weight, Max",[2]; 31 days,375 mg
same,"Tumor weight, Median",[2]; 31 days,117.5 mg
same,"Tumor weight, Min",[2]; 31 days,0 mg
same,tumor weight (range),[2]; 31 days,(0-375) mg
same,"Tumor weight, single animals","[2]; 31 days after tumor cell injection, 100 mg/kg",80 mg and 375 mg and 241 mg and 0 mg (2×) and 98 mg and 318 mg and 137 mg and 205 mg and 67 mg
same,intestinal architecture of ileum (H&E),"IL-15; CPT-11 100 mg/kg, JBT 3002 0.05 μg/dose",produces disruption of the intestinal architecture
same,expression of IL-15 in the ileum,"IL-15; mouse, in vivo",significant decrease in expression of IL-15
same,ΔBW,[3]; [6],−1.7%
same,ΔBW,[3]; [7],−1.5%
same,ΔBW,[3]; [8],−17.6%
same,ΔBW,[3]; [9],1.2%
same,ΔBW,"[3]; Table 14, MLV-JBT 3002 1.0 μg/dose or FF-JBT 3002 0.05 μg/dose oral 3 days, CPT-11 100 mg/kg 4 daily i.p., day not given",−24.0%
same,Mice that died during therapy,"[3]; Table 15, CPT-11 100 mg/kg 4 daily i.p. alone, 10 mice, 100 mg/kg",7 of 10
same,Survival,"C57BL/6 mice [4]; 100 mg/kg CPT-11 i.p. Day 1-4, C57BL6 mice",5/5
same,Survival,"C57BL/6 mice [4]; 150 mg/kg CPT-11 i.p. Day 1-4, C57BL6 mice",3/5
same,Survival,"C57BL/6 mice [4]; 200 mg/kg CPT-11 i.p. Day 1-4, C57BL6 mice",0/5
same,deaths,"C57BL/6 mice [4]; CPT-11 50, 75 or 100 mg/kg once a day for 4 days (i.p.)",None of the injected mice died
same,lethal dose,"C57BL/6 mice [4]; i.p. Day 1-4, C57BL6 mice",200 mg/kg
same,Liver Median no. metastases,[5]; [10],30
same,Liver weight,[5]; [10],2.0 ± 0.3
same,Spleen Tumor size,[5]; [10],8.3 ± 2.0 mm
same,Spleen Weight,[5]; [10],0.6 ± 0.2 g
same,Death of mice,"[5]; CPT-11 100 mg/kg, oral saline",------------------All mice died.------------------------
same,tumor burden of the liver,"[5]; CPT-11 25-100 mg/kg, CT-26P injected into the spleen",dose-dependent reduction in tumor burden of the liver
same,Liver metastasis Incidence,CT-26 colon carcinoma; [6],5/5
same,Liver weight,CT-26 colon carcinoma; [6],1.8 ± 0.3^b g
same,Spleen (primary) Incidence,CT-26 colon carcinoma; [6],5/5
same,Liver metastasis Incidence,CT-26 colon carcinoma; [7],5/5
same,Liver weight,CT-26 colon carcinoma; [7],1.7 ± 0.3^c g
same,Spleen (primary) Incidence,CT-26 colon carcinoma; [7],5/5
same,Liver metastasis Incidence,CT-26 colon carcinoma; [8],2/5
same,Liver weight,CT-26 colon carcinoma; [8],1.2 ± 0.1 g
same,Spleen (primary) Incidence,CT-26 colon carcinoma; [8],5/5
same,Liver metastasis Incidence,CT-26 colon carcinoma; [9],5/5
same,Liver weight,CT-26 colon carcinoma; [9],2.6 ± 0.3 g
same,Spleen (primary) Incidence,CT-26 colon carcinoma; [9],5/5
same,Liver metastasis Incidence,CT-26 colon carcinoma; [11],0/5^b
same,Liver weight,CT-26 colon carcinoma; [11],1.2 ± 0.2 g
same,Spleen tumor Incidence,CT-26 colon carcinoma; [11],5/5^b
same,Liver metastasis Incidence,CT-26 colon carcinoma; [12],1/10^b
same,Liver weight,CT-26 colon carcinoma; [12],"1.9 ± 0.3^c,d g"
same,Spleen tumor Incidence,CT-26 colon carcinoma; [12],6/10^b
same,Liver metastasis Incidence,CT-26 colon carcinoma; [13],8/10
same,Liver weight,CT-26 colon carcinoma; [13],2.0 ± 0.9^c g
same,Spleen tumor Incidence,CT-26 colon carcinoma; [13],7/10
